Results taken from US20130274233A1, “MODULATORS OF HEDGEHOG SIGNALING PATHWAY” (priority 2012, published 2013).
Counter-ions that a name gives are not always drawn. One block for each molecule: values may come before it.

What was measured:
Smo::EGFP [1] = molecular target: T1, Smo::EGFP (Homo sapiens, UniProt Q99835); test: High content assay of Shh-induced Smo::EGFP accumulation in the primary cilium (Smo::EGFP/Ivs::tagRFPT NIH/3T3 cells); format: cell-based; details: for inhibition of Shh-induced Smo::EGFP accumulation in the PC: in the presence of Shh; for Smo antagonist activity in SAR assays: Smo::EGFP/Ivs::tagRFPT cells primed with compounds for 3 hours before adding Shh; for accumulation of Smo on the PC: in either the presence or absence of Shh
T1 construct: expressed in transfected cells
Text: (§1) NIH/3T3 cells were maintained in DMEM containing 10% (v/v) calf serum, penicillin, streptomycin, and L-glutamine. HEK293, L, cos 7, and suFU−/− mouse embryonic fibroblast cells were maintained in DMEM containing 10% (v/v) fetal bovine serum, penicillin, streptomycin, and L-glutamine. Smo::EGFP, SmoM2::GFP, and Ivs::tagRFPT were cloned into pBabe to generate retroviral particles for infection. Smo::EGFP/Ivs::tagRFPT and SmoM2::GFP/Ivs::tagRFPT stable cell lines were generated through viral infection of NIH/3T3^12. A ShhLightII Gli reporter cell line was obtained from the American Type Culture Collection (ATCC) and used in luciferase reporter assays to measure Hh pathway activity. The cell line contains a stably integrated Gli-responsive Firefly luciferase reporter and a constitutive Renilla luciferase expression construct^33. Subclones expressing Smo or SmoM2 in ShhLightII cells were used for chemical epistasis analyses.
(§2) Cells were cultured and treated in 384-well imaging plate precoated with poly-D-Lysine (Greiner Bio-one), fixed with 4% paraformaldehyde (Electron Microscopy Sciences), and stained with Hoechst (Invitrogen). Images were collected using Opera High Content Screening System (Perkin Elmer). Activityl)ase (IDBS Inc, Emeryvill, Calif.) and Pipeline Pilot (Accelrys, Inc. San Diego, Calif.) were used for high content screening data management and analysis. Acapella 2.0 software (Evotec Technologies/PerkinElmer) was used to perform multi-parametrical high content image quantification. All the images for comparison were scanned with identical microscopic settings and analyzed with the same input parameters.
(§3) Acapella 2.0 software (Evotec Technologies/PerkinElmer) was used to perform multi-parametric high content image quantification. Our image analysis script used Ivs::tagREPT to first determine the location of the PC and then Smo::EGFP to quantify the level of Smo present in the cilium.
(§4) The inventors used the spot-finding algorithm in the RFP channel to find Ivs-rich spots. Each non-overlapping spot was based on a maximum 8 pixel-radius (when using a 40× objective) around a central intensity peak of 5 pixels. A distance of at least 10 pixels was required between adjacent spot centers. Spot peaks had to exceed thresholds of relative intensity compared to the remaining body of the spot as well as to the entire image. The average, maximum and total RFP intensity of each spot were measured. The spots with sufficiently high absolute maxima to pass the selected threshold were classified as positive spots. To form candidate cilia, the inventors selected the brightest 15% of the pixels in each positive spot and merged those pixels into objects so that the brightest parts of adjacent spots could form single, larger cilia-shaped objects. To qualify the candidate cilia as true Ivs-positive cilia, the width of the objects created from merging the brightest pixels in each spot had to be at least 2 pixels and the length to half-width ratio had to exceed 3. (i.e. a 3-pixel long by 2-pixel wide cilium was the minimum accepted cilium size and the length had to be at least 1.5 fold of the width). The mean GFP intensity within these Ivs-positive cilia was used to estimate the ciliary level of Smo protein. The inventors subtracted the background of the mean GFP intensity in the 3-pixel wide area around each candidate cilium to avoid some false positives. Those Ivs-positive cilia that exceed the final mean GFP intensity threshold set for each experiment were deemed Smo-positive cilia.
Hoechst staining was used to determine the total number of nuclei per well.
Measurements of the geometry of the cilia as well as the total fluorescent intensities of each cilium in the Smo- and Ivs-channels were used to determine if any of the compounds were having unusual effects on cilia size, intensity or frequency of observation or combinations of all three characteristics.

Hh pathway activity [2] = test: Gli-luciferase reporter assay, Shh-induced Hh pathway activity (ShhLightII cells); format: cell-based; details: for inhibition of Shh-induced Hh pathway activity, Gli-luciferase reporter: Shh stimulation
Text: as §1
(§5) Hh activity assays were performed using ShhLightll cells, Smo/Lightll cells, SmoM2/Lightll cells, and suFU−/− mouse embryonic fibroblasts. In the suFU−/− cells, Hh activity was measured after co-transfection with Gli driven firefly luciferase and TK-renilla luciferase reporters^41. Wnt activity was measured in 293 cells co-transfected with Top-flash and TK-renilla luciferase reporters^42. Cells were cultured and treated in 96 well assay plates (Corning) and incubated with Duo-Glo luciferase substrates (Promega) to measure firefly and renilla luciferase activity sequentially using a Top Count NX Microplate Scintillation and Luminescence Counter (Perkin Elmer). The renilla luciferase signal was used to normalize the firefly reporter activity.
(§6) ShhLightII cells and SmoM2/LightII cells were cultured and treated in 96 well assay plates (Corning) and incubated with Duo-Glo luciferase substrates (Promega) to sequentially measure firefly and renilla luciferase activity. Smo, or GFP, expression plasmids were co-transfected into 3T3 cells together with a Gli-responsive firefly reporter and a TK-renilla luciferase reporter contruct to monitor effects of Smo overexpression. Co-transfection of the two reporter constructs was conducted in assays measuring Hh pathway activity in suFU−/− cells. Wnt activity was measured following co-transfection of a Top-flash and renilla luciferase reporter. In both Hh and Wnt activity assays, renilla luciferase reporter activity, or mass of protein, was used to normalize expression values. Luciferase signal was read by TopCount NX Microplate Scintillation and Luminescence Counter (Perkin Elmer). Quantitative PCR probes for Ptch1, Gli1, and β-actin were purchased from Applied Biosystems. Reactions and measurements were performed using on an Applied Biosystems 7900HT at Harvard FAS Center of System Biology. β-actin was used to normalize Ptch1 and Gil1 values.

SmoM2::GFP = molecular target: T2, SmoM2::GFP (Homo sapiens, UniProt Q99835, W535L); test: Ciliary localization of SmoM2::GFP (3T3/SmoM2::GFP Overexpression/Ivs::tagRFPT); format: cell-based; details: SmoM2::EGFP overexpressing cells
T2 construct: expressed in transfected cells
Text: as §1, §2, §3

SmoM2 = test: Gli-luciferase reporter induced by SmoM2::GFP overexpression (SmoM2/LightII cells); format: cell-based; details: SmoM2 overexpression
Text: as §1, §5, §6

primary cilium (PC) = test: Primary cilium markers in the high content assay (Ivs::tagRFPT, Arl13b, acetylated tubulin); format: cell-based; details: Ivs::tagRFPT and other PC markers
Text: as §3
as §4, with “cilia. […]” for “cilia.”
Cells were cultured and treated in 384-well imaging plate precoated with poly-D-Lysine (Greiner Bio-one), fixed with 4% paraformaldehyde (Electron Microscopy Sciences), and stained with Hoechst (Invitrogen). […] Acapella 2.0 software (Evotec Technologies/PerkinElmer) was used to perform multi-parametric image quantification. All the comparative images were scanned with identical microscopic setting and analyzed with the same input parameters.

Smo = test: Bodipy-cyclopamine competition assay in Cos 7 cells expressing Smo; format: binding; details: cells over-expressing Smo, 5 nM Bodipy-cyclopamine
Protocol: Cos 7 cells were transfected with a plasmid co-expressing Smo and a nuclear localized form of tagRFPT (pCIT-Smo). An empty parental construct (pCIT), and a construct that co-expresses SmoM2, were used as controls to assess specificity and background noise. Three days after transfection, cells were incubated with 5 nM Bodipy-cyclopamine, with or without other compounds for 1 hour at 37 °C. Cells were washed, fixed and stained with Hoechst. Images were collected by an Opera High Content Screen System. Bodipy fluorescence was quantified specifically for transfected cells (determined by red tagRFPT+ nucleus) using a program developed by the authors with Acapella 2.0 software. All of the images were scanned with identical microscopic settings and analyzed with the same input parameters.
Cos 7 cells were transfected with a plasmid that co-expresses Smo and a nuclear localized tagRFPT marker (pCIT-Smo). The empty parental construct (pCIT) and a construct that co-express SmoM2 were used as controls to assess specificity and background signal. Three days after transfection, cells were incubated with 5 nM Bodipy-cyclopamine, with or without additional compounds, for 1 hour at 37° C. Cells were then fixed and stained with Hoechst. Images were collected with the Opera High Content Screen System. Fluorescence values were assessed in transfected cells (red nuclei) with a program developed by the authors using Acapella 2.0 software. All of images were scanned with identical microscopic setting and analyzed with the same input parameters.

Hh pathway activity [3] = test: Priming and withdrawal of compound followed by Shh stimulation, Gli-luciferase reporter (hypersensitivity); format: cell-based; details: priming 24 hours, washout, then Shh (or SAG) stimulation
Protocol: as §5
Following the removal of drug containing medium, and extensive washing, cells were stimulated with either Hh ligand, or the direct-binding Smo agonist SAG^17,18.
as §6

Smo::EGFP [4] = molecular target: T1, Smo::EGFP; test: High content screen for compound-induced Smo accumulation at the primary cilium (no Hh ligand); format: cell-based
Protocol: Cells were cultured and treated in 384-well imaging plate precoated with poly-D-Lysine (Greiner Bio-one), fixed with 4% paraformaldehyde (Electron Microscopy Sciences), and stained with Hoechst (Invitrogen). Images were collected using Opera High Content Screening System (Perkin Elmer).

Wnt signaling activity = test: Wnt Top-flash reporter assay; format: cell-based; details: with or without Wnt3a
Protocol: as §5, §6

Hh pathway activity [5] = test: Gli-luciferase reporter assay, Hh pathway activation by compound alone (NIH/3T3 cells); format: cell-based; details: 1 μM SAG
Protocol: as §6

T1 sequence (Q99835 28-787): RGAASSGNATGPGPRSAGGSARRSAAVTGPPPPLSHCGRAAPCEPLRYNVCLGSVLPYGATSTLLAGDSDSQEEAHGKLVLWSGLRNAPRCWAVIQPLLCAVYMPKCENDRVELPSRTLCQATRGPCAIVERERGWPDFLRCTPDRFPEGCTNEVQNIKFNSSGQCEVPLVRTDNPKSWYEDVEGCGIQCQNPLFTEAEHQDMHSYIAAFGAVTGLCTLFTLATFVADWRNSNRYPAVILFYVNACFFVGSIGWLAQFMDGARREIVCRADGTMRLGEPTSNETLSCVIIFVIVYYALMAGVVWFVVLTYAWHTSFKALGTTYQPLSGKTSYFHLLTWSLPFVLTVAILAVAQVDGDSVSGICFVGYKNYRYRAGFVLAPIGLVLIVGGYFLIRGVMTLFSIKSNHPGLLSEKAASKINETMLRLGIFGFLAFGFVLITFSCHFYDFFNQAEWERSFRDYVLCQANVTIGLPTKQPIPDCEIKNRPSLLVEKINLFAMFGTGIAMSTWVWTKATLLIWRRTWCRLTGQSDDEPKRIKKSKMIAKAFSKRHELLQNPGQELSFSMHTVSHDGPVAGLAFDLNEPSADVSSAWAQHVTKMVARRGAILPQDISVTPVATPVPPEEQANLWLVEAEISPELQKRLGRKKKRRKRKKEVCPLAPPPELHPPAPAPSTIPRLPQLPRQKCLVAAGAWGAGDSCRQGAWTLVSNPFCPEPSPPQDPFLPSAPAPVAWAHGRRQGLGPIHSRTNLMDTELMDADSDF
T2 sequence (Q99835 28-787 W535L): as the sequence (Q99835 28-787) above, with W508L counted along it

- inhibition of Shh-induced Smo::EGFP accumulation in the PC (Smo::EGFP [1]): inhibition of Smo accumulation in the PC
- effect on SmoM2 ciliary localization (SmoM2::GFP): attenuated
Molecule: CC(C)C(=O)OCC(=O)[C@@]12O[C@H](C3CCCCC3)O[C@@H]1C[C@H]1[C@@H]3CCC4=CC(=O)C=C[C@]4(C)[C@H]3[C@@H](O)C[C@@]12C [Cic, Ciclesonide]
- inhibition of Shh-induced Hh pathway activity, Gli-luciferase reporter (Hh pathway activity [2]): inhibited
- effect on SmoM2 driven Hh pathway activity, transcriptional reporter (SmoM2): attenuated
- effect on primary cilium markers / ciliary structure (primary cilium (PC)): did not disrupt

- Smo antagonist activity in SAR assays (Smo::EGFP [1]): moderately decreased the activity
Molecule: CCN(CC)c1ccc(/C=N/NC(=O)c2ccccc2)cc1 [RL-0070463]

Molecule: CC/C(=C(\c1ccccc1)c1ccc(OCCN(C)C)cc1)c1ccccc1 [tamoxifen citrate]
- accumulation of Smo on the PC (Smo::EGFP [1]): did not alter the accumulation of Smo on the PC

- IC50 (Smo::EGFP [1]; 3T3/Smo::GFP/Ivs::tagRFPT cells, stimulus Shh, read-out: IC50, inhibition of Shh-induced Smo::GFP ciliary accumulaton): 2 µM
- IC50 (Hh pathway activity [2]; Mus musculus, Shh Light II, 3T3/Shh-LightII cells, stimulus Shh, read-out: IC50, inhibition of Shh-induced expression of Gli-luciferase reporter): 10 µM
Molecule: CC(C)c1ccc(/C=N/NC(=O)c2ccc(O)cc2)cc1 [GSK4716]

Molecule: CC1=C2C[C@H]3[C@@H](CC=C4C[C@@H](O)CC[C@@]43C)[C@@H]2CC[C@]12O[C@@H]1C[C@H](C)CN[C@H]1[C@H]2C [Cyc, Cyclopamine]
- Hh pathway inhibition by the antagonist in the presence of FA (Hh pathway activity [2]; Gli-luciferase induction and Smo ciliary localization, 10 μM FA): dramatically reduced
- competition of Bodipy-Cyc binding to Smo (Smo): effective competitor
- hypersensitivity to Hh pathway stimulation after priming with and removal of compound, Gli-luciferase (Hh pathway activity [3]): elevated signaling response
- induction of Smo accumulation in the PC by compound alone (Smo::EGFP [4]): induces its accumulation in the PC

Molecule: CCCC1O[C@@H]2C[C@H]3[C@@H]4CCC5=CC(=O)C=C[C@]5(C)[C@H]4[C@@H](O)C[C@]3(C)[C@]2(C(=O)CO)O1 (some centres unmarked) [Bud, Budesonide]
- effect on Wnt pathway reporter activity (Wnt signaling activity): no effect

- inhibition of Shh-induced Smo::EGFP accumulation in the PC (Smo::EGFP [1]): inhibited
Molecule: CC(=O)N1CCN(c2ccc(OCC3COC(Cn4ccnc4)(c4ccc(Cl)cc4Cl)O3)cc2)CC1 (centres unmarked) [KCZ, Ketoconazole]
- inhibition of Shh-induced Hh pathway activity, Gli-luciferase reporter (Hh pathway activity [2]): inhibited

Molecule: CC[C@]1(O)C[C@@H]2CN(CCc3c([nH]c4ccccc34)[C@@](C(=O)OC)(c3cc4c(cc3OC)N(C)[C@H]3[C@@](O)(C(=O)OC)[C@H](OC(C)=O)[C@]5(CC)C=CCN6CC[C@]43[C@@H]65)C2)C1 [vinblastine]
- inhibition of Shh-induced Hh pathway activity, Gli-luciferase reporter (Hh pathway activity [2]): appear as Hh pathway antagonists
- effect on primary cilium markers / ciliary structure (primary cilium (PC)): decrease in the Ivs::tagRFPT ciliary signal

- inhibition of Shh-induced Smo::EGFP accumulation in the PC (Smo::EGFP [1]): inhibited
Molecule: Cl.Cl.Clc1ccccc1CNCC1CCC(CNCc2ccccc2Cl)CC1 (centres unmarked) [AY9944]
- inhibition of Shh-induced Hh pathway activity, Gli-luciferase reporter (Hh pathway activity [2]): inhibited

Molecule: 4-hydroxytamoxifen
- accumulation of Smo on the PC (Smo::EGFP [1]): did not alter the accumulation of Smo on the PC

Molecule: O=C(N/N=C/c1ccccc1)c1ccc(O)cc1 [RL-0070462]
- Smo antagonist activity in SAR assays (Smo::EGFP [1]): dramatically impaired the activity

- induction of Smo accumulation in the PC by compound alone (Smo::EGFP [4]): induces its accumulation in the PC
Molecule: CNC1CCC(N(Cc2cccc(-c3ccncc3)c2)C(=O)c2sc3ccccc3c2Cl)CC1 (centres unmarked) [SAG]
- transcriptional response in Gli-luciferase reporter assay (Hh pathway activity [5]): 25 fold

Molecule: CC/C(=C(/CC)c1ccc(O)cc1)c1ccc(O)cc1 [diethylstilbestrol]
- accumulation of Smo on the PC (Smo::EGFP [1]): did not alter the accumulation of Smo on the PC

Molecule: N#CC(C(=O)c1ccc(Cl)cc1Cl)c1nc2ccccc2c(=O)[nH]1 (centres unmarked) [HPI-4]
- inhibition of Shh-induced Hh pathway activity, Gli-luciferase reporter (Hh pathway activity [2]): appear as Hh pathway antagonists
- effect on primary cilium markers / ciliary structure (primary cilium (PC)): decrease in the Ivs::tagRFPT ciliary signal

Molecule: CC[C@H](c1ccc(O)cc1)[C@@H](CC)c1ccc(O)cc1 [hexestrol]
- accumulation of Smo on the PC (Smo::EGFP [1]): did not alter the accumulation of Smo on the PC

Molecule: CCN(CC)c1ccc(/C=N/NC(=O)c2ccc(OC)cc2)cc1 [RL-0070464]
- Smo antagonist activity in SAR assays (Smo::EGFP [1]): can be tolerated
